Measurements published in US9920010B2, “CXCR7 receptor modulators” (IDORSIA PHARMACEUTICALS LTD, priority 2013, dated 2018).

Biological target: T1, CXCR7 (Homo sapiens, UniProt P25106)
T1 construct: host or cells: CHO-K1 (PathHunter CHO-K1 CXCR7 b-arrestin cell line, stably transfected)
Test: PathHunter CHO-K1 CXCR7 b-arrestin recruitment assay (CXCR7 agonistic activity)
Type: cell-based
Details: PathHunter CHO-K1 CXCR7 b-arrestin cell line
Outline: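 Stable CHO-K1 line with C-terminally ProLink-tagged CXCR7 and β-arrestin 2–EA fusion; β-arrestin recruitment restores β-gal activity, read by chemiluminescence after 1 h RT detection. Cells seeded 24 h, starved in OPTIMEM 3–4 h, exposed to compounds 90 min at 37 °C in HBSS/HEPES/BSA. Geometric-mean EC50 from repeated measurements.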

T1 sequence (P25106 whole entry): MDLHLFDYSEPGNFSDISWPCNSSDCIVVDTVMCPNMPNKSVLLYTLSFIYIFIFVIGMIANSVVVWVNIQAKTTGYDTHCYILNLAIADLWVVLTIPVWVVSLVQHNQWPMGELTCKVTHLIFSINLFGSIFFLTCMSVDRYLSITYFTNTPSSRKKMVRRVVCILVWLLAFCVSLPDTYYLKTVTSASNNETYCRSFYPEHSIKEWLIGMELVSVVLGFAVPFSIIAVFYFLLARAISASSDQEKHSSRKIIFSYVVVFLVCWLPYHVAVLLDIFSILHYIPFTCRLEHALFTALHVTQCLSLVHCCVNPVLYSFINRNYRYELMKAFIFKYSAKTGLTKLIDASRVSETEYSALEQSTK
T1 sequence (P32121 whole entry partner): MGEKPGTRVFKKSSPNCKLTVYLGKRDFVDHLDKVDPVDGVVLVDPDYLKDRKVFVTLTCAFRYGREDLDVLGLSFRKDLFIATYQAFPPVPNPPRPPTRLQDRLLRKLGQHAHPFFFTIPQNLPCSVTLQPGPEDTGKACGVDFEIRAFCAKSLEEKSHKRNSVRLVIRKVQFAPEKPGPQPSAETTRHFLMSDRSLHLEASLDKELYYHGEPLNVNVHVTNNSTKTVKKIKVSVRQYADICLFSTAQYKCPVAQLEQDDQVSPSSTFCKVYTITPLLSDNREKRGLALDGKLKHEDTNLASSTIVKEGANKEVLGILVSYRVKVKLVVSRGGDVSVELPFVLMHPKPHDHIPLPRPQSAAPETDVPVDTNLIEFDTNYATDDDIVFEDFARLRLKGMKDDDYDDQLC

| EC50 [nM] | SMILES |
| --- | --- |
| 14 | CC(C)OC(=O)N1CCc2cccc(NCC(=O)N(CCN(C)C)Cc3ccccc3C(F)(F)F)c2C1 [compound 553, 8-({[(2-Dimethylamino-ethyl)-(2-trifluoromethyl-benzyl)-carbamoyl]-methyl}-amino)-3,4-dihydro-1H-isoquinoline-2-carboxylic acid isopropyl ester] |
| 232 | CC(C)(O)CN(Cc1ncccc1Cl)C(=O)CNc1cccc2c1CN(C1CCC1)CC2 [compound 457] |
| 28 | O=C(CNc1cccc2c1CN(CC1CC1)CC2)N(CCN1CCCC(F)(F)C1)Cc1ncccc1C(F)(F)F [compound 480, 2-(2-Cyclopropylmethyl-1,2,3,4-tetrahydro-isoquinolin-8-ylamino)-N-[2-(3,3-difluoro-piperidin-1-yl)-ethyl]-N-(3-trifluoromethyl-pyridin-2-ylmethyl)-acetamide] |
| 15 | CC(O)CN(Cc1ccccc1C(F)(F)F)C(=O)CNc1cccc2c1CCN(CC1CC1)C2 (racemic) [Example 240, rac-2-(2-Cyclopropylmethyl-1,2,3,4-tetrahydro-isoquinolin-5-ylamino)-N-(2-hydroxy-propyl)-N-(2-trifluoromethyl-benzyl)-acetamide] |
| 3 | CN(C)CCN(Cc1ccccc1)C(=O)/C=C/c1cccc2c1CCN(CC1CC1)C2 [compound 143, (E)-N-Benzyl-3-(2-cyclopropylmethyl-1,2,3,4-tetrahydro-isoquinolin-5-yl)-N-(2-dimethylamino-ethyl)-acrylamide] |
| 16 | O=C(/C=C/c1cccc2c1CCN(CC1CC1)C2)N(Cc1ccccc1)C1CCS(=O)(=O)C1 (stereo not shown) [compound 147] |
| 33 | O=C(CNc1cccc2c1CN(CC1CC1)CC2)N(CC(=O)N1CC(F)(F)C1)Cc1ncccc1C(F)(F)F [compound 483, 2-(2-Cyclopropylmethyl-1,2,3,4-tetrahydro-isoquinolin-8-ylamino)-N-[2-(3,3-difluoro-azetidin-1-yl)-2-oxo-ethyl]-N-(3-trifluoromethyl-pyridin-2-ylmethyl)-acetamide] |
| 14 | CN(C)CCN(Cc1ccccc1)C(=O)CNc1cccc2c1CCN(CC1CC1)C2 [compound 110, N-Benzyl-2-(2-cyclopropylmethyl-1,2,3,4-tetrahydro-isoquinolin-5-ylamino)-N-(2-dimethylamino-ethyl)-acetamide] |
| 161 | CC(C)(C)OC(=O)N1CCC(N(Cc2ccccc2C(F)(F)F)C(=O)CNc2cccc3c2CCN(CC2CC2)C3)C1 (stereo not shown) [Example 254, 3-[[2-(2-Cyclopropylmethyl-1,2,3,4-tetrahydro-isoquinolin-5-ylamino)-acetyl]-(2-trifluoromethyl-benzyl)-amino]-pyrrolidine-1-carboxylic acid tert-butyl ester] |
| 400 | COCCN1CCc2c(CCC(=O)N(CCN3CCC(F)(F)CC3)Cc3ncccc3Cl)cccc2C1 [Example 345, N-(3-Chloro-pyridin-2-ylmethyl)-N-[2-(4,4-difluoro-piperidin-1-yl)-ethyl]-3-[2-(2-methoxy-ethyl)-1,2,3,4-tetrahydro-isoquinolin-5-yl]-propionamide] |
| 5 | CNCCN(Cc1ncccc1C(F)(F)F)C(=O)CNc1cccc2c1CCN(C(=O)C1CC1)C2 [compound 410, 2-(2-Cyclopropanecarbonyl-1,2,3,4-tetrahydro-isoquinolin-5-ylamino)-N-(2-methylamino-ethyl)-N-(3-trifluoromethyl-pyridin-2-ylmethyl)-acetamide] |
| 24 | O=C(CNc1cccc2c1CCN(CC1CC1)C2)N(Cc1ccccc1C(F)(F)F)CC(O)C(F)(F)F (racemic) [Example 242, rac-2-(2-Cyclopropylmethyl-1,2,3,4-tetrahydro-isoquinolin-5-ylamino)-N-(3,3,3-trifluoro-2-hydroxy-propyl)-N-(2-trifluoromethyl-benzyl)-acetamide] |
| 74 | CNCCN(Cc1ncccc1C(F)(F)F)C(=O)CNc1cccc2c1CCN(C(=O)OCC(C)C)C2 [compound 426] |
| 8 | CCCN1CCc2cccc(NCC(=O)N(CCN(C)C)Cc3ccccc3C(F)(F)F)c2C1 [compound 556, N-(2-Dimethylamino-ethyl)-2-(2-propyl-1,2,3,4-tetrahydro-isoquinolin-8-ylamino)-N-(2-trifluoromethyl-benzyl)-acetamide] |
| 113 | CCN1CCc2cccc(NCC(=O)N(CCc3ccccc3)CCN(C)C)c2C1 [compound 542] |
| 53 | CCC(=O)N1CCc2c(cccc2NCC(=O)N(CCN(C)C)Cc2cccc(C)c2)C1 [Example 14, N-(2-Dimethylamino-ethyl)-N-(3-methyl-benzyl)-2-(2-propionyl-1,2,3,4-tetrahydro-isoquinolin-5-ylamino)-acetamide] |
| 249 | CCN1CCc2cccc(NCC(=O)N(CCN(C)C(=O)OC(C)(C)C)Cc3ccccc3)c2C1 [compound 493] |
| 9 | CN1CCC(N(Cc2ccccc2C(F)(F)F)C(=O)CNc2cccc3c2CCN(CC2CC2)C3)CC1 [Example 105, 2-(2-Cyclopropylmethyl-1,2,3,4-tetrahydro-isoquinolin-5-ylamino)-N-(1-methyl-piperidin-4-yl)-N-(2-trifluoromethyl-benzyl)-acetamide] |
| 113 | CCN1CCc2cccc(NCC(=O)N(CCN(C)C)Cc3ccc(Cl)cc3)c2C1 [compound 502] |
| 49 | O=C(CNc1cccc2c1CCN(CC1CC1)C2)N(Cc1ccccc1C(F)(F)F)C1CCOCC1 [Example 74, 2-(2-Cyclopropylmethyl-1,2,3,4-tetrahydro-isoquinolin-5-ylamino)-N-(tetrahydro-pyran-4-yl)-N-(2-trifluoromethyl-benzyl)-acetamide] |
| 5 | O=C(CNc1cccc2c1CCN(CC1CC1)C2)N(CCN1CCCC1)Cc1ccccc1 [Example 41, N-Benzyl-2-(2-cyclopropylmethyl-1,2,3,4-tetrahydro-isoquinolin-5-ylamino)-N-(2-pyrrolidin-1-yl-ethyl)-acetamide] |
| 3 | CN(C)CCN(Cc1ncccc1C(F)(F)F)C(=O)CNc1cccc2c1CN(CC1CC1)CC2 [compound 566, 2-(2-Cyclopropylmethyl-1,2,3,4-tetrahydro-isoquinolin-8-ylamino)-N-(2-dimethylamino-ethyl)-N-(3-trifluoromethyl-pyridin-2-ylmethyl)-acetamide] |
| 6 | CN(C)CCN(Cc1ccccc1C(F)(F)F)C(=O)CNc1cccc2c1CCN(c1ncccn1)C2 [Example 375, N-(2-Dimethylamino-ethyl)-2-(2-pyrimidin-2-yl-1,2,3,4-tetrahydro-isoquinolin-5-ylamino)-N-(2-trifluoromethyl-benzyl)-acetamide] |
| 5 | CN(C)CCN(Cc1ccccc1C(F)(F)F)C(=O)CNc1cccc2c1CCN(C1CCCC1)C2 [Example 210, 2-((2-Cyclopentyl-1,2,3,4-tetrahydroisoquinolin-5-yl)amino)-N-(2-(dimethylamino)ethyl)-N-(2-(trifluoromethyl)benzyl)acetamide] |
| 6 | CCN1CCc2cccc(NCC(=O)N(CCN(C)C)Cc3ncccc3C(F)(F)F)c2C1 [compound 531, N-(2-Dimethylamino-ethyl)-2-(2-ethyl-1,2,3,4-tetrahydro-isoquinolin-8-ylamino)-N-(3-trifluoromethyl-pyridin-2-ylmethyl)-acetamide] |
